Measured values: PubChem BioAssay (NCI)
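In this assay, cells in 96-well plates receive the compound at five concentrations for 48 hours. Endpoints are linearly interpolated between the surrounding concentrations. At the GI50, growth is halved. TGI marks complete inhibition of growth.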

What was measured:
Assay in all cases: inhibition of tumour cell growth, NCI panel, 48 h
786-0 renal = test system: 786-0 renal
A498 renal = test system: A498 renal
ACHN renal = test system: ACHN renal
BT-549 breast = test system: BT-549 breast
CAKI-1 renal = test system: CAKI-1 renal
CCRF-CEM leukemia = test system: CCRF-CEM leukemia
COLO 205 colon = test system: COLO 205 colon
DU-145 prostate = test system: DU-145 prostate
EKVX NSCLC = test system: EKVX NSCLC
HCC-2998 colon = test system: HCC-2998 colon
HCT-116 colon = test system: HCT-116 colon
HCT-15 colon = test system: HCT-15 colon
HL-60(TB) leukemia = test system: HL-60(TB) leukemia
HOP-62 NSCLC = test system: HOP-62 NSCLC
HOP-92 NSCLC = test system: HOP-92 NSCLC
HS 578T breast = test system: HS 578T breast
HT29 colon = test system: HT29 colon
IGROV1 ovarian = test system: IGROV1 ovarian
K-562 leukemia = test system: K-562 leukemia
KM12 colon = test system: KM12 colon
LOX IMVI melanoma = test system: LOX IMVI melanoma
M14 melanoma = test system: M14 melanoma
MALME-3M melanoma = test system: MALME-3M melanoma
MCF7 breast = test system: MCF7 breast
MDA-MB-231 breast = test system: MDA-MB-231 breast
MDA-MB-435 = test system: MDA-MB-435
MOLT-4 leukemia = test system: MOLT-4 leukemia
NCI-H226 lung = test system: NCI-H226 lung
NCI-H23 lung = test system: NCI-H23 lung
NCI-H460 lung = test system: NCI-H460 lung
NCI-H522 lung = test system: NCI-H522 lung
NCI/ADR-RES ovarian = test system: NCI/ADR-RES ovarian
OVCAR-4 ovarian = test system: OVCAR-4 ovarian
OVCAR-5 ovarian = test system: OVCAR-5 ovarian
OVCAR-8 ovarian = test system: OVCAR-8 ovarian
PC-3 prostate = test system: PC-3 prostate
RPMI-8226 leukemia = test system: RPMI-8226 leukemia
RXF 393 renal = test system: RXF 393 renal
SF-268 CNS = test system: SF-268 CNS
SF-295 CNS = test system: SF-295 CNS
SF-539 CNS = test system: SF-539 CNS
SK-MEL-2 melanoma = test system: SK-MEL-2 melanoma
SK-MEL-28 melanoma = test system: SK-MEL-28 melanoma
SK-MEL-5 melanoma = test system: SK-MEL-5 melanoma
SK-OV-3 ovarian = test system: SK-OV-3 ovarian
SN12C renal = test system: SN12C renal
SNB-19 CNS = test system: SNB-19 CNS
SNB-75 CNS = test system: SNB-75 CNS
SW-620 colon = test system: SW-620 colon
T-47D breast = test system: T-47D breast
TK-10 renal = test system: TK-10 renal
U251 CNS = test system: U251 CNS
UACC-257 melanoma = test system: UACC-257 melanoma
UACC-62 melanoma = test system: UACC-62 melanoma
UO-31 renal = test system: UO-31 renal

## C#Cc1nc(C(=O)NCCCCCCC(=O)NO)cs1
786-0 renal
  GI50: 0.294 µM
  TGI: 0.838 µM
A498 renal
  GI50: 0.528 µM
  TGI: 1.78 µM
ACHN renal
  GI50: 0.897 µM
  TGI: 2.19 µM
BT-549 breast
  GI50: 1.47 µM
  TGI: 2.85 µM
CAKI-1 renal
  GI50: 0.997 µM
  TGI: 2.31 µM
CCRF-CEM leukemia
  GI50: 0.284 µM
  TGI: 0.994 µM
COLO 205 colon
  GI50: 0.691 µM
  TGI: 2 µM
DU-145 prostate
  GI50: 0.367 µM
  TGI: 1.44 µM
EKVX NSCLC
  GI50: 1.55 µM
  TGI: 3.19 µM
HCC-2998 colon
  GI50: 1.71 µM
  TGI: 4.43 µM
HCT-116 colon
  GI50: 0.339 µM
  TGI: 1.56 µM
HCT-15 colon
  GI50: 1.47 µM
  TGI: 3.84 µM
HL-60(TB) leukemia
  GI50: 0.314 µM
  TGI: 0.805 µM
HOP-62 NSCLC
  GI50: 1.12 µM
  TGI: 3.07 µM
HOP-92 NSCLC
  GI50: 0.571 µM
  TGI: 1.81 µM
HS 578T breast
  GI50: 0.718 µM
  TGI: 4.05 µM
HT29 colon
  GI50: 0.782 µM
  TGI: 2.44 µM
IGROV1 ovarian
  GI50: 0.572 µM
  TGI: 2.15 µM
K-562 leukemia
  GI50: 0.639 µM
  TGI: > 100 µM
KM12 colon
  GI50: 1.39 µM
  TGI: 3.6 µM
LOX IMVI melanoma
  GI50: < 0.0149 µM
  TGI: 0.053 µM
M14 melanoma
  GI50: 1.22 µM
  TGI: 4.03 µM
MALME-3M melanoma
  GI50: 0.314 µM
  TGI: 1.61 µM
MCF7 breast
  GI50: 0.939 µM
  TGI: 7.25 µM
MDA-MB-231 breast
  GI50: 0.318 µM
  TGI: 1.1 µM
MDA-MB-435
  GI50: 0.692 µM
  TGI: 3.45 µM
MOLT-4 leukemia
  GI50: 0.294 µM
  TGI: 1.2 µM
NCI-H226 lung
  GI50: 1.74 µM
  TGI: 6.49 µM
NCI-H23 lung
  GI50: 0.78 µM
  TGI: 2.22 µM
NCI-H460 lung
  GI50: 0.587 µM
  TGI: 7.25 µM
NCI-H522 lung
  GI50: 0.168 µM
  TGI: 0.353 µM
NCI/ADR-RES ovarian
  GI50: 0.335 µM
  TGI: > 100 µM
OVCAR-4 ovarian
  GI50: 1.8 µM
  TGI: 5.12 µM
OVCAR-5 ovarian
  GI50: 1.03 µM
  TGI: 3.58 µM
OVCAR-8 ovarian
  GI50: 0.405 µM
  TGI: 2.11 µM
PC-3 prostate
  GI50: 1.83 µM
  TGI: 10.1 µM
RPMI-8226 leukemia
  GI50: 0.312 µM
  TGI: 1.55 µM
RXF 393 renal
  GI50: 0.392 µM
  TGI: 1.39 µM
SF-268 CNS
  GI50: 1.53 µM
  TGI: 3.44 µM
SF-295 CNS
  GI50: 0.983 µM
  TGI: 2.42 µM
SF-539 CNS
  GI50: 0.794 µM
  TGI: 2.24 µM
SK-MEL-2 melanoma
  GI50: 1.25 µM
  TGI: 3.54 µM
SK-MEL-28 melanoma
  GI50: 1.21 µM
  TGI: 5.1 µM
SK-MEL-5 melanoma
  GI50: 0.642 µM
  TGI: 2.18 µM
SK-OV-3 ovarian
  GI50: 1.47 µM
  TGI: 4.01 µM
SN12C renal
  GI50: 1.62 µM
  TGI: 5.25 µM
SNB-19 CNS
  GI50: 2.21 µM
  TGI: 10 µM
SNB-75 CNS
  GI50: 0.714 µM
  TGI: 3.34 µM
SW-620 colon
  GI50: 0.346 µM
  TGI: 1.82 µM
T-47D breast
  GI50: 0.288 µM
  TGI: 1.54 µM
TK-10 renal
  GI50: 0.263 µM
  TGI: 1.53 µM
U251 CNS
  GI50: 1.12 µM
  TGI: 2.39 µM
UACC-257 melanoma
  GI50: 0.393 µM
  TGI: 2.84 µM
UACC-62 melanoma
  GI50: 0.433 µM
  TGI: 2.05 µM
UO-31 renal
  GI50: 0.174 µM
  TGI: 0.332 µM
